The values that follow are results of earlier work, collected in EP1165099B1, “ANGIOTENSIN II AND ANALOGS THEREOF FOR LIMITING SCAR AND ADHESION FORMATION” (UNIVERSITY OF SOUTHERN CALIFORNIA, priority 1999, dated 2006).

The series deals with AT2 receptor.

In the case of “Asp-Arg-Val-Tyr-Ile-Xaa-Pro-Phe [(p-NH2-Phe)6-AII]”, the binding characteristics result (experimental models of the cited literature) was “comparable to AT2 antagonists”.
With Asp-Arg-Val-Tyr-Ile-His-Pro-Phe [AII], the “affinity for AT2 than AT1” value (ratio of affinity AT2 over AT1) is on record as 100 times.
